Patent publication US7846483B2, “Cosmetic composition for skin application suitable for relaxing expression wrinkles” (Labo Cosprophar AG, priority 2004, dated 2010)
Where no end group is shown, it is not given here.

Assays:
[1] = test system: endoplasmic reticulum vesicles; assay: Outflow of calcium ions from endoplasmic reticulum vesicles versus external magnesium ion concentration; assay type: biochemical; settings: with an increase in the concentration of Mg++ in the medium (FIG. 2)
Procedure: In particular, the dependence of the flow at the outlet of the calcium ions on the external concentration of magnesium ions was evaluated. The results obtained are shown in the graph of FIG. 2.

[2] = test system: nerve-muscle co-culture model; assay: Contraction frequency in a nerve-muscle co-culture model with acetyl Dipeptide-1 cetyl ester; assay type: cell-based; settings: for contraction inhibition: 0.9%
Procedure: The decontracting efficacy was evaluated, of dipeptide N-acetyl tyrosyl-arginyl (Dipeptide) hexadecyl ester, dissolved in a hydro-glycol excipients.
• 1. […] Evaluation of the contraction frequency in a nerve-muscle co-culture model in incubation with acetyl Dipeptide-1 cetyl ester at 0.9% for 5 minutes and 2 h.

POMC gene = assay: Gene expression of the POMC gene in a culture of human keratinocytes; assay type: cell-based; settings: human keratinocytes incubated for 24 h
CGRP = CGRP synthesis in a culture of neurons; assay type: cell-based; settings: neurons incubated for 6 hours
[3] = test system: nerve-muscle co-culture model; assay: In vitro efficacy test on pentapeptide: contraction frequency in a nerve-muscle co-culture model; assay type: cell-based; settings: 0.3% by weight, contractions counted over 30 sec
Procedure: In vitro efficacy test on pentapeptide
The frequency of the contractions was determined in a nerve-muscle co-culture model to evaluate the decontracting capacity of pentapeptide gly-pro-arg-pro -ala-NH2 SEQ ID NO 1, used at a concentration of 0.3% by weight.

**Q.** For Magnesium ions, which “quantity of Calcium ions released from the endoplasmic reticulum vesicles” value [1] is on record?
**A.** Its value is “decreases”.

**Q.** For “N-acetyl tyrosyl-arginyl (Dipeptide) hexadecyl ester [acetyl Dipeptide-1 cetyl ester]”, which contraction inhibition ([2]; after 5 minutes of incubation, 1 fiber out of 3) is on record?
**A.** The contraction inhibition was “higher than 20%”.

**Q.** And the contraction inhibition ([2]; after 2 hours of incubation, all 3 fibers)?
**A.** Its contraction inhibition is 100%.

**Q.** What about the “over-expression of the POMC gene with respect to the reference” value (POMC gene; 0.9%) of the same substance?
**A.** The value was “> +29%”.

**Q.** What about the “over-expression of the POMC gene with respect to the reference” value (POMC gene; 1.9%) of the same substance?
**A.** The value was “> +63%”.

**Q.** What about the “reduction in the CGRP synthesis with respect to the reference” value (CGRP; 2.8%) of the same substance?
**A.** The value was −0%.

**Q.** And the “reduction in the CGRP synthesis with respect to the reference” value (CGRP; 4.7%)?
**A.** Its value is −50%.

**Q.** Which “average reduction in the contraction frequency” value ([3]; after 1 minute of incubation) does the source give for “gly-pro-arg-pro-ala-NH2 (GPRPA-NH2) [pentapeptide]” here?
**A.** The value was 69.75%.

**Q.** What about the “average reduction in the contraction frequency” value ([3]; after 2 hours of incubation) of the same substance?
**A.** Its value is 60.75%.

**Q.** Which “DECREASE IN THE MUSCULAR FIBER CONTRACTION, Positive reference (α-bungarotoxin)” value [2] does the source give for α-bungarotoxin [reference compound] here?
**A.** The value was “Blockage”.
